Experimental data: patent publication US4061637A, “Certain 4-aryl-5-(4-phenylpiperazino)alkyl-4-thiazolin-2-ones” (priority 1974, dated 1977)
Read-outs that look alike come from different tables or passages of the source.

Key:
[1] = Acute toxicity under LD50 mouse; settings: in vivo, ip
nor-adrenalin = test: Antagonism towards a lethal dose of nor-adrenalin in the rat (α-adrenolytic activity); format: in vivo; settings: for ED50: po, 1 h, read-out: α-adrenolytic activity lethal NA rat ED50
Experimental: Antagonism towards a lethal dose of nor-adrenalin in the rat
The animals are treated with a dose of nor-adrenalin (0.5 mg/kg) which is 100% lethal in animals. The activity is calculated by the number of animals protected from death by prior administration of the drug under examination one hour before the agonist. Where possible the ED50 was calculated.

[2] = Pinching the tail of the mouse (systemic analgesic activity); format: in vivo; settings: po, 0.5 h, mouse, 30 minutes; for inhibition in vivo at 200 mg/kg: 200 mg/kg os
Experimental: To evaluate the analgesic activity, the method described by Bianchi and colleagues (Brit. J. Pharmacol., 9, 280, 1954) was followed which consists of applying an arterial pincer to the base of the tail in animals treated orally 30 minutes previously with the drug under examination, observing that the control animals react to the pain by squealing.

[3] = Ulcers by constriction (stress) in the rat; format: in vivo; settings: 4 h, rat; for responders at 30 mg/kg / inhibition in vivo at 30 mg/kg: 30 mg/kg ip; for responders at 30 mg/kg / responders at 10 mg/kg: read-out: Anti-ulcer activity, ulcers by stress in the rat, Protected rats %; for inhibition in vivo at 30 mg/kg / inhibition in vivo at 10 mg/kg: read-out: Anti-ulcer activity, ulcers by stress in the rat, Reduction in ulcers %; for responders at 10 mg/kg / inhibition in vivo at 10 mg/kg: 10 mg/kg ip
Experimental: The method described by Rossi and colleagues (Compt. Rend. Soc. Biol., 150, 2124, 1956) was followed in which the formation of gastric ulcers is induced by immobilising the animal, in a state of fast for 48 hours, in a net for a period of 4 hours.
The protection given by treatment with the drug under examination before the beginning of the constriction period is evaluated by counting both the ulcers and the number of subjects without ulcers.

[4] = Carrageen oedema in the conscious rat (anti-inflammatory activity); format: in vivo; settings: for ED30: 1 h, ip, one hour before carrageen, read-out: Anti-inflammatory activity carrageenin oedema rat ED30; for Anti-inflammatory activity carrageenin oedema rat, percentage activity (ED30 lacking): 200 mg/kg ip
Experimental: Anti-inflammatory activity was evaluated by the method of Winter and colleagues (Proc. Soc. Exp. Biol., 111, 544, 1962) by endoperitoneally injecting the product under examination one hour before inducing oedema by injecting 0.05 ml. of a 1% suspension of carrageen (intradermally into the plantar portion of a rear paw).
The difference between the volume of the paw determined plethysmographically one hour before and three hours after the carrageen gives a quantitative estimate of the activity of the product tested. Where possible, the ED30 was calculated.

[5] = Inhibition of spontaneous motility in the mouse; format: in vivo; settings: po, 0.5 h; mouse, os, 30 minutes after treatment; read-out: Spontaneous motility inhibition mouse ED50
Experimental: This is evaluated by an actophotometric method, which consists of placing the mice, 30 minutes after oral treatment with the drug or the carrier, in a cage provided with a photoelectric cell counter and counting the number of times the photoelectric cell is passed during a 10 minute stay.

[6] = Antagonism towards electric shock convulsions in the mouse; format: in vivo; settings: po, 0.5 h, mouse, 35 volt, read-out: Anti-convulsion activity, electric shock, mouse, % att.; for inhibition in vivo at 200 mg/kg: 200 mg/kg os
Experimental: This is evaluated by observing the protection given by pretreatment with the drug (30 minutes) against tonic convulsions obtained by applying a 35 volt current to the eyeballs.

[7] = Cataleptic activity in the mouse; format: in vivo; settings: mouse; for ED50: po, os, read-out: Cataleptic activity mouse ED50
[8] = rat, os, one hour before nor-adrenalin 0.5 mg/kg

CN(CCc1ccccc1)CCc1sc(=O)[nH]c1-c1ccc(Cl)cc1.O=C(O)/C=C\C(=O)O [LR 628, 4-p-chlorophenyl-5-β-(N-methylphenylethylamino)ethyl-4-thiazolin-2-one maleate]
LD50 [1]: 400 mg/kg
ED50 (nor-adrenalin; [8]): 8 mg/kg
inhibition in vivo at 100 mg/kg ([2]; 100 mg/kg os): 0%
responders at 30 mg/kg [3]: 0%
inhibition in vivo at 30 mg/kg [3]: 0%
ED30 [4]: 35 mg/kg
ED50 [5]: 100 mg/kg
inhibition in vivo at 100 mg/kg ([6]; 100 mg/kg os): 0%

O=c1[nH]c(-c2ccc(Cl)cc2)c(CN2CCN(c3ccccc3)CC2)s1 [LR 660, 4-p-chlorophenyl-5-(N'-phenylpiperazino)methyl-4-thiazolin-2-one]
LD50 [1]: > 1000 mg/kg
responders at 10 mg/kg [3]: 50%
inhibition in vivo at 10 mg/kg [3]: 50%
ED50 [5]: 100 mg/kg
inhibition in vivo at 200 mg/kg [6]: 20%

CN(CCc1ccccc1)CCc1sc(=O)[nH]c1-c1ccc(F)cc1.O=C(O)/C=C\C(=O)O [LR 616, 4-p-fluorophenyl-5-β-(N-methylphenylethylamino)ethyl-4-thiazolin-2-one maleate]
LD50 [1]: 225 mg/kg
ED50 (nor-adrenalin; [8]): 5.5 mg/kg
inhibition in vivo at 40 mg/kg ([2]; 40 mg/kg os): 0%
responders at 30 mg/kg [3]: 10%
inhibition in vivo at 30 mg/kg [3]: 0%
Cataleptic activity mouse, percentage activity (ED50 lacking) ([7]; 40 mg/kg os): 0%
ED30 [4]: 54 mg/kg
ED50 [5]: 40 mg/kg
inhibition in vivo at 40 mg/kg ([6]; 40 mg/kg os): 0%

CN(CCc1ccccc1)CCc1sc(=O)[nH]c1-c1ccccc1.O=C(O)/C=C\C(=O)O [LR 630, 4-phenyl-5-β-(N-methylphenylethylamino)ethyl-4-thiazolin-2-one maleate]
LD50 [1]: 750 mg/kg
ED50 (nor-adrenalin; [8]): 16 mg/kg
inhibition in vivo at 180 mg/kg ([2]; 180 mg/kg os): 0%
responders at 30 mg/kg [3]: 10%
inhibition in vivo at 30 mg/kg [3]: 0%
ED50 [7]: 180 mg/kg
ED30 [4]: 145 mg/kg
ED50 [5]: 60 mg/kg
inhibition in vivo at 180 mg/kg ([6]; 180 mg/kg os): 10%

Cn1c(-c2ccc(F)cc2)c(CCN2CCN(c3ccccc3)CC2)sc1=O [LR 652, 3-methyl-4-p-fluorophenyl-5-β-(N'-phenylpiperazino)-ethyl-4-thiazolin-2-one]
LD50 [1]: > 1000 mg/kg
ED50 (nor-adrenalin; Rattus norvegicus): 13.3 mg/kg
inhibition in vivo at 200 mg/kg [2]: 0%
responders at 30 mg/kg [3]: 50%
inhibition in vivo at 30 mg/kg [3]: 68%
ED50 [7]: 52.4 mg/kg
ED30 [4]: 163 mg/kg
ED50 [5]: 23 mg/kg
inhibition in vivo at 200 mg/kg [6]: 40%

O=c1[nH]c(-c2ccc(Cl)cc2)c(CCN2CCN(c3ccccc3)CC2)s1 [LR 638, 4-p-chlorophenyl-5-β-(N'-phenylpiperazino)ethyl-4-thiazolin-2-one]
LD50 [1]: > 1000 mg/kg
α-adrenolytic activity lethal NA rat, percentage activity (ED50 lacking) (nor-adrenalin; rat, 50 mg/kg os): 0%
inhibition in vivo at 200 mg/kg [2]: 10%
responders at 10 mg/kg [3]: 60%
inhibition in vivo at 10 mg/kg [3]: 63%
ED50 [7]: 200 mg/kg
Anti-inflammatory activity carrageenin oedema rat, percentage activity (ED30 lacking) [4]: 14%
ED50 [5]: 200 mg/kg
inhibition in vivo at 200 mg/kg [6]: 10%

O=c1[nH]c(-c2ccccc2)c(CCN2CCN(c3ccccc3)CC2)s1 [LR 637, 4-phenyl-5-β-(N'-phenylpiperazino)ethyl-4-thiazolin-2-one]
LD50 [1]: 1000 mg/kg
ED50 (nor-adrenalin; Rattus norvegicus): 18 mg/kg
inhibition in vivo at 200 mg/kg [2]: 30%
responders at 10 mg/kg [3]: 57%
inhibition in vivo at 10 mg/kg [3]: 86%
ED50 [7]: 200 mg/kg
Anti-inflammatory activity carrageenin oedema rat, percentage activity (ED30 lacking) [4]: 11.6%
ED50 [5]: 200 mg/kg
inhibition in vivo at 200 mg/kg [6]: 20%
